The record followed here is BindingDB's records for doi:10.1074/jbc.M110.156463 (Merck Research Laboratories, 2011).

SMILES strings stand for the structures.

The test deals with T1, 3-phosphoinositide-dependent protein kinase 1 (Homo sapiens, UniProt O15530).
T1 sequence (O15530 whole entry): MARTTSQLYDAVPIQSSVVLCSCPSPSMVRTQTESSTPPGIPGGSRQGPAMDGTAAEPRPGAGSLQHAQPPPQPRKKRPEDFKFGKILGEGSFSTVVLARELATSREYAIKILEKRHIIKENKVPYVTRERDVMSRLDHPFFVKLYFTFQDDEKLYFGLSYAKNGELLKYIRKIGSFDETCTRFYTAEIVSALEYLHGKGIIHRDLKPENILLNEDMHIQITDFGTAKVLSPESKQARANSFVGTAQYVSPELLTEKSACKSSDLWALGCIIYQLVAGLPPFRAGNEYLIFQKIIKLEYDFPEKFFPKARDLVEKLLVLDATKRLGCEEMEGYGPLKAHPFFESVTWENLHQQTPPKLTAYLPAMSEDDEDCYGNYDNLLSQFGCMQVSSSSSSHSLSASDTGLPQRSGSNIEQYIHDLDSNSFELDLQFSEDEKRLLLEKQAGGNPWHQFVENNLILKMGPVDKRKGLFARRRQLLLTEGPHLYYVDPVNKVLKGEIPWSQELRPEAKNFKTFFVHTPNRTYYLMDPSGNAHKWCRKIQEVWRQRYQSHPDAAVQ
Put plainly: Proliferation Assay. On the procedure:
Enzyme potency (PDK1 EC50)was determined using recombinant, purified full-length human PDK1 enzyme and AKT-Thr-308-tide as substrate.

Broadly, the EC50 is the concentration at which the effect is half-maximal. Low readings indicate greater potency, high ones weaker potency. Take `Cc1[nH]nc2c1c(=O)n(CCCN)c1ccc(Cl)cc21`: the EC50 stood at 9 nM. This counts as single-digit nanomolar. With `CC(C)(C)c1nc2c3ccc(F)cc3c3c(=O)[nH]ccc3c2[nH]1` [Jak Inhibitor 1] the figure was 1 nM.

The compound `O=C(NCCCNc1nc(Nc2cccc(NC(=O)N3CCCC3)c2)ncc1I)c1cccs1` [N-{3-[(5-iodo-4-{[3-(thiophen-2-ylformamido)propyl]amino}pyrimidin-2-yl)amino]phenyl}pyrrolidine-1-carboxamide] registered an EC50 of 26 nM. This EC50 lies about 26-fold higher than the previous one. `CC(Nc1nc2c(C#CC3CC3)c[nH]c(=O)c2c2cc(-c3cn[nH]c3)ccc12)C(C)(C)C` (stereo unspecified) [PDK1 inhibitor, 2] had a 50% effective concentration (EC50) of 9 nM. Against the preceding compound, the EC50 is about 2.9-fold lower.

With `COc1ccc(C#Cc2ccc3ncc4ncn(-c5ccc(CCN)cc5)c4c3c2)cc1` [PDK1 inhibitor, 4], a half-maximal response (EC50) required 200 nM. This EC50 lies about 22-fold higher than the previous one.

With `Cc1[nH]nc(-c2nc3cc4c[nH][nH]c4cc3n2)c1C(=O)NC1CCNCC1` [PDK1 inhibitor, 6], the EC50 was 12 nM. Against the preceding compound, the EC50 is about 17-fold lower.
